# Assay results taken from ChEMBL document CHEMBL5223172, “Development of fluorophore labeled or biotinylated anticancer small molecule NSC243928” (Bioorg Med Chem, 2023).
# Active and inactive are the calls of the source. No cut-off for these calls is given here.
# Legend:
# [1] = molecular target: T1, Lymphocyte antigen 6K (Homo sapiens) (UniProt Q17RY6); test: Binding affinity to human wild type LY6K at 1.25 to 5 uM measured upto 250 sec by SPR assay; conditions: dose 1.25-5 µM
# T1 sequence (whole entry): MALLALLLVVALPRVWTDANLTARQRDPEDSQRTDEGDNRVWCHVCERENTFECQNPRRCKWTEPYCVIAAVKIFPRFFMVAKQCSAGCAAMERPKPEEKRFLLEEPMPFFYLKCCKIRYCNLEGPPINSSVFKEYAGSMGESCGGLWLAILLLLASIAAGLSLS
# Lymphocyte antigen 6K = molecular target: T2, Lymphocyte antigen 6K (Homo sapiens, UniProt Q17RY6); test: Binding affinity to human wild type LY6K assessed as dissociation constant measured upto 250 sec by SPR assay
# T2 sequence (Q17RY6 whole entry): T1 sequence (whole entry)
# [2] = molecular target: T1, Lymphocyte antigen 6K (Homo sapiens); test: Inhibition of LY6K in human Hs-578T cells assessed as reduction in cell viability measured after 48 hrs by Cell titer blue assay; type: cell-based; conditions: dose 5-10 µM
# Hs-578T = test: Antiproliferative activity against human Hs-578T cells transfected with LY6K-shRNA assessed as reduction in cell viability at 5 to 10 uM measured after 48 hrs by Cell titer blue assay; type: functional, cell-based; conditions: dose 5-10 µM
# [3] = Drug uptake in human Serum starved Hs-578T cells assessed as drug localization in perinuclear region of cell at 2 uM measured after 2 hrs by DAPI staining based confocal microscopy; type: ADME
# [4] = Drug uptake in human Serum starved Hs-578T cells assessed as drug localization in cytoplasm of cell at 2 uM measured after 2 hrs by DAPI staining based confocal microscopy; type: ADME
# [5] = Drug uptake in human Serum starved Hs-578T cells assessed as drug localization in membrane of the cell at 2 uM measured after 2 hrs by DAPI staining based confocal microscopy; type: ADME
Compound,Activity [1],Kd (Lymphocyte antigen 6K) [µM],Activity [2],Activity (Hs-578T),Drug uptake [3],Drug uptake [4],Drug uptake [5]
CCS(=O)(=O)Nc1ccc(Nc2c3ccccc3nc3ccccc23)c(OC)c1,Dose-Dependent Effect,4.7,Dose-Dependent Effect,inactive,,,
CCS(=O)(=O)Nc1ccc(Nc2c3ccccc3nc3cc([N+](=O)[O-])ccc23)c(OC)c1,Dose-Dependent Effect,,,,,,
CCS(=O)(=O)Nc1ccc(Nc2c3ccccc3nc3cc(C(=O)NCCCCCCNc4ccc([N+](=O)[O-])c5nonc45)ccc23)c(OC)c1,Active,,Dose-Dependent Effect,inactive,Active,Active,Active
CCS(=O)(=O)Nc1ccc(Nc2c3ccccc3nc3cc(NC(=O)CCCC[C@@H]4SC[C@@H]5NC(=O)N[C@@H]54)ccc23)c(OC)c1,Active,,,,,,
CCS(=O)(=O)Nc1ccc(Nc2c3ccccc3nc3cc(C(=O)OCc4ccccc4)ccc23)c(OC)c1,Active,,,,,,
CCS(=O)(=O)Nc1ccc(Nc2c3ccccc3nc3cc(C(=O)NCCOCCOCCOCCOCCOCCOCCOCCNC(=O)CCCC[C@@H]4SC[C@@H]5NC(=O)N[C@@H]54)ccc23)c(OC)c1,,0.3,Dose-Dependent Effect,inactive,,,
